From patent US4251520A, “Glucofuranose derivatives” (priority 1976, dated 1981)

Key:
capillary permeability = assay: Capillary permeability test; settings: 500 mg/kg p.o. mouse
Method: (§1) Pharmacological tests were carried out to evaluate the acute toxicity, anti-inflammatory and capillary permeability action, antipyretic, analgesic and anti-spasmodic in vitro action.

in vivo = settings: mouse, in vivo, po
Antipyretic activity = type: in vivo, rat; settings: for Antipyretic activity (potency in comparison with aspirin = 100): 400 mg/kg p.o. rat; for Antipyretic action (in words): rat, in vivo
Method: as §1

edema induced by dextran = assay: Anti-inflammatory activity, dextran-induced edema; type: in vivo, rat; settings: po; 500 mg/kg p.o. rat; read-out: % inhibition of edema induced by dextran
Method: as §1

[1] = Analgesic activity, hot plate test; type: in vivo, mouse; settings: po; 500 mg/kg p.o. mouse; hot plate test; read-out: Analgesic activity, increase of reaction time %
Method: as §1

spasm by acetylcholine = assay: Antispasmodic activity in vitro, spasm by acetylcholine
Method: as §1

[2] = test system: edema induced by carrageenan; assay: Anti-inflammatory activity, carrageenin-induced oedema; type: in vivo, rat; settings: po; 500 mg/kg p.o. rat; read-out: % inhibition of edema induced by carrageenan
Source text: Beginning, therefore, with D-glucose, we have prepared 1,2:5,6-di-O-isopropylidene-α-D-glucofuranose (II): [drawing 2] as well as 1,2-O-isopropylidene-α-D-glucofuranose and 1,2-O-isopropylidene-3,5,6-tri-O-benzyl-α-D-glucofuranose (1; Glen W. L., Myers G. S., Grant G. A., J. Chem. Soc., 2568/1951; (2) Meyer A. S., Reichstein T., Helv. Chim. Acta, 29, 139/1946; (3) Huber G., Rossi A., Helv. Chim. Acta, 51, 1185/1968) and have compared these compounds with (I) for anti-inflammatory activity against carrageenin-induced oedema (500 mg/kg, p.o. in rats).

[3] = Analgesic activity, protection from writhing; type: in vivo, mouse; settings: po; 500 mg/kg p.o. mouse; read-out: Analgesic activity, protection from writhing %
Method: as §1

spasm by histamine = assay: Antispasmodic activity in vitro, spasm by histamine
Method: as §1

[4] = test system: edema induced by formalin; assay: Anti-inflammatory activity, formalin-induced edema; type: in vivo, rat; settings: po; 500 mg/kg p.o. rat; read-out: % inhibition of edema induced by formalin
Method: as §1

granuloma = assay: Granuloma cotton pellet test; settings: Rattus norvegicus, po, read-out: % inhibition of granuloma
Method: as §1

[5] = test system: oedema induced by carrageenin, dextran and formalin; assay: Anti-inflammatory activity tests (oedema by carrageenin, dextran and formalin); type: in vivo; settings: rat
Method: as §1

Compound | Capillary permeability, decrease % (capillary permeability) | LD50 (in vivo) | Antipyretic activity (potency in comparison with aspirin = 100) (Antipyretic activity) | inhibition in vivo at 500 mg/kg (edema induced by dextran) | change in vivo at 500 mg/kg [1] | Antispasmodic activity in vitro, ED50, inhib. of spasm by acetylcholine (spasm by acetylcholine) | inhibition in vivo at 500 mg/kg [2] | inhibition in vivo at 500 mg/kg [3] | Antispasmodic activity in vitro, ED50, inhib. of spasm by histamine (spasm by histamine) | inhibition in vivo at 500 mg/kg [4] | Antipyretic action (in words) (Antipyretic activity) | inhibition in vivo at 200 mg/kg (granuloma) | Inhibition of spasms induced by histamine (in words) (spasm by histamine) | Activity against spasms produced by acetylcholine (in words) (spasm by acetylcholine) | Anti-inflammatory potency compared with aspirin and phenylbutazone (in words) [5] | Inhibition of oedema induced by carrageenin, dextran and formalin, compared with (I) (in words) [5]
CCOC1C(C2COC(C)(C)O2)OC2OC(C)(C)OC21 (stereo not shown) [IV] | 42% | 2000 mg/kg | 31% | 14% | 30% | > 100 µg/mL | 37% | 0% | 150 µg/mL | 33% |  |  |  |  |  | 
CCCCOC1C(C2COC(C)(C)O2)OC2OC(C)(C)OC21 (stereo not shown) [VI] | 57% | 3000 mg/kg | 51% | 13% | 40% | > 100 µg/mL | 33% | 0% | > 100 µg/mL | 24% | retained |  |  |  |  | 
CCCOC1C(C2COC(C)(C)O2)OC2OC(C)(C)OC21 (stereo not shown) [V] | 53% | 1000 mg/kg | 37% | 0% | 10% | > 100 µg/mL | 28% | 20% | > 100 µg/mL | 0% |  |  |  |  |  | 
CC1(C)OCC(C2OC3OC(C)(C)OC3C2OCC(=O)O)O1 [XIII, 3-Carboxymethyl-1,2:5,6-di-O-isopropylidene-α-D-glucofuranose] | 14% | > 4000 mg/kg | 5% | 4% | 0% | > 100 µg/mL | 10% | 0% | > 100 µg/mL | 18% |  |  |  |  |  | 
CN(C)CCOC1C(C2COC(C)(C)O2)OC2OC(C)(C)OC21 [XIV, 3-(2-Dimethylaminoethyl)-1,2:5,6-di-O-isopropylidene-α-D-glucofuranose] | 35% | 1500 mg/kg | 43% | 54% | 10% | > 100 µg/mL | 62% | 20% | 100 µg/mL | 28% | retained | 0% |  |  |  | 
CC1(C)OCC(C2OC3OC(C)(C)OC3C2OCCN2CCCCC2)O1 (stereo not shown) [XIX] | 17% | > 1000 mg/kg | 55% | 56% |  |  | 64% |  |  | 28% | retained |  |  |  |  | 
CC1(C)OCC(C2OC3OC(C)(C)OC3C2OCCN2CCCC2)O1 (stereo not shown) [XVIII] | 50% | 1500 mg/kg | 0% | 64% | 10% | > 100 µg/mL | 68% | 0% | 100 µg/mL | 38% |  | 0% |  |  |  | 
CC(C)N(CCOC1C(C2COC(C)(C)O2)OC2OC(C)(C)OC21)C(C)C (stereo not shown) [XVII] | 32% | 1000 mg/kg | 15% | 35% | 0% | 100 µg/mL | 73% | 40% | 70 µg/mL | 32% |  | 0% |  |  |  | 
CCCN(CCC)CCOC1C(C2COC(C)(C)O2)OC2OC(C)(C)OC21 (stereo not shown) [XVI] |  | 750 mg/kg | 29% | 41% | 0% | 100 µg/mL | 23% | 0% | 12 µg/mL | 24% |  | 0% | inhibited spasms induced by histamine at relatively low concentrations |  |  | 
CCN(CC)CCOC1C(C2COC(C)(C)O2)OC2OC(C)(C)OC21 (stereo not shown) [XV] | 20% | 3000 mg/kg | 8% | 58% | 10% | > 100 µg/mL | 60% | 0% | 100 µg/mL | 4% |  | 0% |  |  |  | 
CC1(C)OCC(C2OC3OC(C)(C)OC3C2OCCN(Cc2ccccc2)Cc2ccccc2)O1 (stereo not shown) [XXI] |  | > 2000 mg/kg | 25% | 17% | 0% |  | 29% | 60% |  | 19% |  |  |  |  |  | 
CC1(C)OCC(C2OC3OC(C)(C)OC3C2OCCN2CCOCC2)O1 (stereo not shown) [XX] | 58% | 1500 mg/kg | 14% | 65% | 40% | > 100 µg/mL | 59% | 0% | > 100 µg/mL | 43% |  | 0% |  |  |  | 
C#CCOC1C(C2COC(C)(C)O2)OC2OC(C)(C)OC21 (stereo not shown) [X] |  | 1500 mg/kg | 107% | 65% | 0% | 50 µg/mL | 53% | 20% | 50 µg/mL | 36% | retained | 0% |  | moderately active | as potent as or more potent than aspirin and phenylbutazone | clearly more active than (I)
